From patent US5874471A, “Orthomolecular medical use of L-citrulline for vasoprotection, relaxative smooth muscle tone and cell protection” (priority 1997, dated 1999)
Where two headings read alike, the source gives them in different places.

Key:
human platelets = details: cited from earlier work; for inhibition of L-arginine uptake into platelets: 300 μM extracellular concentration, L-arginine 30 μM
[1] = Total forearm bleeding time during oral L-citrulline; format: in vivo, human
Experimental: The same subject that was studied in Example 1 was studied by total bleeding time determinations before and during ingestion of daily doses of L-citrulline, in two divided subdoses. Forearm bleeding times were done by 3 to 5 mm cuts about 1 mm deep made perpendicular to the fold of the elbow during template methodology and a sphygmomanometer cuff maintained near 40 mm Hg pressure. Control bleeding times were 51/2 minutes. Bleeding time rose to 131/2 minutes after 2 days of ingestion of 8.5 grams daily. Bleeding time was prolonged at 13 minutes after 4 weeks of ingestion of 5.4 grams of L-citrulline daily in 2 divided doses.

migraine pains = experiment: Migraine pain with oral L-citrulline; format: in vivo, human
Experimental: […] Their body weight was 59 kg. The subject gave a history of migraine pains with and without aura for about 15 years. Currently, the migraine pains were recurring about once to a few times weekly. Their parent had experienced migraine headaches for many years.
Shortly after the onset of a severe headache attack, the subject ingested 2.7 grams of L-citrulline, followed by another 2.7 grams about 1 hour later.
(§1) Subsequently, the person cited in Example 4 followed an oral regimen of 3.6 grams of L-citrulline daily in two subdoses of 1.8 grams (morning and evening) for seven weeks. The frequency and intensity of the migraine pain episodes were reduced over this interval.

[2] = in vivo; cited from earlier work
[3] = Tolerability of oral L-citrulline (symptoms, blood count, serum chemistry); format: in vivo, human
Source text: as §1
(§2) The subject cited in Example 1 and Example 2 above subsequently undertook oral supplementation with 4.5 grams of L-citrulline daily in 2 divided doses (morning and nightly) of 1.8 grams (in 2 capsules) and 2.7 grams (in 3 capsules) for 4 months. They continued their usual food intake. At the end of the 4-month period of supplementation with 4.5 grams daily, […] 9-hour overnight fasting plasma concentration of L-arginine measured at 102.3 μM, assayed in plasma within 30 minutes of venous blood sampling. This increased fasting plasma level contrasted from their lower normal fasting values of 83.0±1.1 μM measured months before, an increment about 20 μM greater.
(§3) The apparent nootropic effects from oral intake of L-citrulline are consistent with the inventive beneficial effects of L-citrulline as exogenous precursor in order to improve brain functions that may be mediated by enhanced L-arginine, creatine, and phosphocreatine stores within the central nervous system.

lacunar infarction = experiment: Recurrence of symptomatic lacunar infarction on daily citrulline; format: in vivo, human; details: 4.5 grams daily in two subdoses for many months
Source text: Aspirin in small daily doses is commonly recommended as antiplatelet and antithrombotic agent in cardiovascular disease, particularly for the secondary prevention of coronary artery thrombosis and myocardial infarction, and for cerebrovascular ischemic manifestations such as lacunar infarctions. This subject had experienced, five-years earlier, an acute episodic event of symptomatic lacunar infarction with virtual recovery.

[4] = Plasma ultrafiltrate L-arginine level after oral L-citrulline (colorimetric assay); format: in vivo, human
Experimental: The one FIGURE contains graphs of plasma ultrafiltrate levels of L-arginine in the fasting state (9-10 hours) related to the daily amounts of L-citrulline ingested in two divided doses. Also depicted are levels 2-hours after ingestion of morning doses of L-citmulline (EXAMPLE 1).
A novel colorimetric method for the quantitative assay of free L-arginine in blood plasma was developed. The method measures the color product from monosubstituted guanidines without and with L-arginase incubation to destroy the arginine and the potential guanido color product that would be derived from L-arginine. The photometric decrease in guanido color product measures specifically the concentration of L-arginine. The L-arginine methodology was applied to ultrafiltrates of blood plasma after ultrafiltrations of separated plasma samples were done at 4° Celsius.
Blood plasma levels after 9 to 10 hours of overnight fasting averaged 83.0±1.1 μM (mean±SD of 3 determinations). Two hours after ingestion of 3.0 grams of L-citrulline in capsular form, plasma L-arginine level rose by […] to 132.7 μM. Overnight fasting plasma levels of L-arginine measured 125.2, 98.1, 90.8, 114.2, and 120.0 μM after ingestion of L-citrulline for 6 days at 6.0 grams, for 13 days at 2.4 grams, for 6 days at 3.4 grams, for 7 days at 6.8 grams, and for 2 days at 8.5 grams, respectively, in 2 divided doses (morning and nightly).
as §2

brain functions = experiment: Mental alertness, intellectual performance and mental fatigue on L-citrulline; format: in vivo, human; details: 4.5 grams daily, 4 months
Experimental: as §2, §3

[5] = rat, in vivo; cited from earlier work
[6] = tested on: rabbit model of angioplasty; details: L-arginine hydrochloride 2.25% in drinking water; cited from earlier work
osteoporosis = details: oral supplements in large amounts; cited from earlier work
platelet activity = details: cited from earlier work; for total bleeding time: low-dose / small therapeutic doses orally, humans
migraine aura = details: inhalation of small amounts, some cases; cited from earlier work
[7] = parenteral injection, rats; cited from earlier work
[8] = tested on: human semen specimens with low motility; details: between 1.0 and 4.0 mM, in vitro; cited from earlier work
[9] = tested on: uterine muscle strips from gravid rats; details: L-arginine added to extracellular fluid; cited from earlier work
[10] = tested on: experimental diabetes mellitus; details: long-term oral administration in marked amounts; cited from earlier work
[11] = rat; cited from earlier work
[12] = tested on: spermatocytes of infertile men; details: 4 to 20 grams of arginine daily, oral; cited from earlier work
[13] = tested on: endothelium-dependent vasodilation; details: L-arginine infusion, humans with hypercholesterolemia; cited from earlier work
[14] = tested on: cortical spreading depression; details: rat, in vivo; cited from earlier work
[15] = tested on: hypercholesterolemic rabbit models; details: sixfold enrichment of dietary L-arginine; cited from earlier work
apoptosis = details: L-arginine-deficient (10 μM) environment; cited from earlier work
activated c-NOS = details: plasma L-arginine above normal fasting 75 to 90 μM; cited from earlier work
[16] = cited from earlier work
[17] = tested on: renal vasodilatory responses; details: aged compared to young hypertensives; cited from earlier work
muscle fatigue = details: oral daily supplementation, healthy humans; cited from earlier work
hippocampal brain tissue = details: extracellular creatine increased by 3 mM; cited from earlier work
[18] = 4-month regimen of 4.5 grams daily

In the case of `NC(=O)CC[C@H](N)C(=O)O` [L-glutamine], the “inhibition of L-arginine uptake into platelets” value (shortened to “inhibition”) (human platelets) is listed as “inhibitory”.

With `NC(=O)NCCC[C@H](N)C(=O)O` [L-citrulline] the bleeding time ([1]; after 2 days of 8.5 grams daily, control 51/2 minutes) was 131/2, the “prolongation of total bleeding time” value ([1]; daily doses of 5.4 grams to 8.5 grams) was “about two-fold” and the “migraine pain intensity and duration” value (migraine pains; 2.7 grams at onset plus 2.7 grams about 1 hour later) was “markedly lessened in intensity and in duration”. For the same molecule, the “nausea during migraine attack” value (migraine pains; 2.7 grams plus 2.7 grams about 1 hour later) was “Much less nausea”, the “frequency and intensity of migraine pain episodes” value (migraine pains; 3.6 grams daily in two subdoses, seven weeks) was “reduced” and the blood-brain barrier passage [2] was “readily passes the blood-brain barrier”. The adverse side-effects ([3]; 3.6 grams daily for seven weeks, person) was “No adverse side-effects”, the adverse symptoms [3, 18] was “No adverse symptoms” and the “complete blood count and blood serum chemistry tests” value [3, 18] was “remained normal”. The “adverse symptoms or untoward signs” value ([3]; Example 1 study, several weeks) was “No adverse symptoms or untoward signs”, the “recurrence of lacunar infarction” value (lacunar infarction) was “No manifestations of recurrence” and the “increment in fasting plasma L-arginine” value ([4]; 4 months at 4.5 grams daily vs 83.0±1.1 μM before) was “about 20 μM”. The “metabolic adaptation to long-continued supplementation” value ([4]; 4 months, 4.5 grams daily) was “no significant metabolic adaptation”, the “elevation of plasma L-arginine versus equivalent L-arginine or protein meals” value ([4]; comparison with literature) was “more efficient and longer lasting” and the “blood plasma levels of L-arginine after overnight fasting (general statement)” value ([4]; daily dosage in two divided subdoses, 9 to 10 hours fasting) was “greater blood plasma levels of L-arginine even after overnight fasting”. For the same molecule, the “blood plasma concentrations of free L-arginine (general statement)” value ([4]; single oral doses of 3.0 grams or more in capsules) was “promptly raised to much higher levels”, the “plasma L-arginine level rise” value ([4]; two hours after 3.0 grams L-citrulline in capsules, person, 102 kg, fasting 83.0±1.1 μM before) was 62.4% and the “mental alertness and intellectual performance” value (brain functions) was “enhanced”. For the same molecule, the mental fatigue (brain functions) was “less mental fatigue” and the “liver uptake in portal venous blood” value [5] was “Without appreciable liver uptake”.

In the case of `Cl.N=C(N)NCCC[C@H](N)C(=O)O` [L-arginine hydrochloride], the arterial thickening [6] is listed as “reduced thickening”, the “increase of plasma arginine levels” value [6] is listed as “about 2.6 times” and the “neoendothelium-dependent arterial muscle relaxation” value [6] is listed as “enhanced neoendothelium-dependent arterial muscle relaxation”.

For `O=C(O)O` [calcium carbonate], the “skeletal bone loss in osteoporosis” value (osteoporosis) is listed as “decreased the skeletal bone loss”.

For `CC(=O)Oc1ccccc1C(=O)O` [aspirin, acetylsalicylic acid], the total bleeding time (platelet activity) is listed as “prolonged”, the total bleeding time (platelet activity; listed as acetylsalicylic acid (aspirin)) is listed as “prolongs the total bleeding time” and the platelet activity (platelet activity; low-dose intake in humans) is listed as “inhibits platelet activity”.

For `CCCCCON=O` [amyl nitrite], the migraine aura (migraine aura) is listed as “temporarily reversed migraine aura in some cases”.

In the case of `NCCCC[C@H](N)C(=O)O` [L-lysine], the “inhibition” value (human platelets) is given as “inhibitory”.

For `N=C(N)NCCC[C@H](N)C(=O)O` [L-arginine], the “time for plasma and tissue concentrations to return to normal” value [7] is given as 2 to 3 h, the sperm motility [8] is given as “enhances sperm motility in a concentration-dependent manner” and the “muscle relaxation and quiescence” value [9] is given as “dose-dependent muscle relaxation, and muscle quiescence”. The “glomerular hyperfiltration and abnormal filtration fraction hemodynamics” value [10] was “prevents the glomerular hyperfiltration”, the proteinuria [10] was “ameliorates the proteinuria” and the “brain tissue arginine level relative to plasma levels” value [11] was 20 to 30%. For the same molecule, the “total sperm counts and motility rates” value [12] was “may improve total sperm counts and motility rates”, the impaired endothelium-dependent vasodilation [13] was “corrected” and the Km (human platelets; read-out: apparent Km for uptake into human platelets) was 26 ± 4 µM. For the same molecule, the “oligemic vasoconstriction following cortical spreading depression” value [14] was “reduces the oligemic vasoconstriction”, the “endothelial adhesiveness and atherogenesis” value [15] was “markedly inhibits endothelial adhesiveness and atherogenesis” and the “increase in plasma arginine levels” value [15] was “twofold increase”. For the same molecule, the nitric oxide-dependent vasodilation [15] was “improves nitric oxide-dependent vasodilation”, the protection from apoptosis (apoptosis) was “protects cells from apoptosis” and the “endothelial nitric oxide production” value (activated c-NOS) was “augments endothelial nitric oxide production”. For the same molecule, the “time to return to near fasting values” ([16]; 24.8 grams L-arginine, normal adults) was 3 h, the “peak plasma arginine relative to fasting values” ([16]; 24.8 grams L-arginine, fasting 90±6 μM) was “about 3.6 times” and the plasma citrulline levels ([16]; oral 3-gram single doses of arginine, healthy humans) was “without a change in plasma citrulline levels”. The plasma arginine levels ([16]; oral 3-gram single doses, healthy humans) was “raises plasma arginine levels acutely”, the “time of peak plasma arginine” value ([16]; single protein meal of about 30 to 50 grams (about 1 to 2 grams arginine)) was 2 to 3 h and the “time to return to near fasting levels” value ([16]; single protein meal of about 30 to 50 grams) was 5 to 6 h. For the same molecule, the renal vasodilatory responses [17] was “blunted in aged compared to young hypertensives”.

In the case of `NCCC[C@H](N)C(=O)O` [L-ornithine], the “inhibition” value (human platelets) is listed as “inhibitory”.

For `CN(CC(=O)O)C(=N)N` [creatine], the “muscle fatigue with physical exercise” value (muscle fatigue) is given as “lessened muscle fatigue”, the “muscle stores of free creatine and phosphocreatine” value (muscle fatigue) is given as “greater muscle stores” and the ATP levels (hippocampal brain tissue) is given as “without change in ATP levels”. The anoxia-induced neuronal damage (hippocampal brain tissue) was “attenuated”, the “neurocyte viability after anoxic periods” value (hippocampal brain tissue) was “greater neurocyte viabilities” and the “neuronal free creatine and phosphocreatine levels” value (hippocampal brain tissue) was “large increases”.
